# Assay results taken from a melting point compilation (Tetko et al.; mined from patent text by program, amines drawn as free bases though some values may be those of a salt).
row,SMILES,melting point [°C]
1,OCc1cnc2sc3c(n12)CCCCC3,145 to 146
2,CS(=O)(=O)c1ccc(-n2nc(C(F)(F)F)cc2-c2ccc(-c3ccsc3)cc2)cc1,154 to 155
3,CC(=O)OC1=CCc2c(Oc3ccc(NC(=O)c4ccc(Cl)c(Cl)c4)cn3)cccc21,161 to 164
4,CCOC(=O)CN1C(=O)COc2c(Cl)nc(C)nc21,69 to 70
5,CCCc1nn(C)c2c(=O)[nH]c(-c3sc(S(=O)(=O)N4CCN(C)CC4)cc3OCC)nc12,219 to 220
6,N#Cc1cnc2cc(-c3csc(C=O)c3)ccc2c1Nc1ccc(Cl)cc1Cl,286 to 288
7,CN(C)C=CC(=O)c1ccc(C(F)(F)F)cc1[N+](=O)[O-],101
8,C=Cc1ccnc(-c2cc(C)ccn2)c1,82 to 86
9,CNC(=O)ON=C1SC(C)C(=O)NC1(C)C (stereo not drawn),190 to 191
10,CCOC(=O)COc1ccc(C(=O)Nc2cc(Cl)ccc2Sc2ccccc2-c2nnn[nH]2)cc1,206 to 208
11,Clc1nc(NCCCCC=C(c2ccccc2)c2ccccc2)c2nc[nH]c2n1,206 to 207
12,CC(=O)Nc1cccc(NC(=O)NC2N=C(c3ccccc3F)c3ccccc3N(CC(=O)N3CC4CCC(CC4)C3)C2=O)c1 (racemic),207 to 215
13,N#CC(c1ccccc1)(c1ccccc1)[C@H]1CCCN(CCc2ccc3c(c2)CCC3)C1,88 to 91
14,c1ccc(-c2ccc3nc(C4(c5ccc6[nH]nnc6c5)N=c5ccccc5=N4)[nH]c3c2)cc1,> 280
15,COc1nccc2c1C(C)(O)c1c([nH]c3ccncc13)C2(C)O (stereo not drawn),> 250
16,Cn1cc(C2=C(c3c4n(c5ccccc35)CCC(CO)C4)C(=O)NC2=O)c2ccccc21 (stereo not drawn),262 to 263
17,Cc1nnc(-c2ccnc(NCc3ccccn3)c2)o1,137 to 138
18,Cc1ccc2c(n1)sc1c(Cl)nnnc12,188 to 189
19,CCOc1cccc(C)c1S(=O)(=O)NC(=O)c1noc(C)n1,168
20,O=C1CCN(C(=O)c2cc(C(F)(F)F)cc(C(F)(F)F)c2)CC1,155 to 157
21,COC(=O)c1cc(C(C)(C)C(=O)OC)ccc1N,58 to 60
22,CC(C)CN1C(=O)C(C)(C)C(=O)Nc2ccc(C=O)cc21,208 to 211
23,Oc1ncnc2c1CCOc1ccccc1-2,241 to 243
24,CCOC(=O)C1=C(C)NC(C)=C(C(=O)OCC)C1c1ccccc1S(C)=O (stereo not drawn),232 to 233
25,COC(=O)[C@H](O)Cc1ccccc1,46 to 47

row,SMILES,melting point [°C]
1,Nc1sc2c(c1C(=O)c1ccc(Cl)cc1)CCN(CCc1ccc([N+](=O)[O-])cc1)C2,150 to 152
2,CN1CCOc2ccc(S(=O)(=O)n3c(Cc4ccc(C(=O)O)cc4)cc4c(Cl)cccc43)cc21,236
3,C=CCn1c(=O)c2cc(C(=O)OCC)cn2c2ccccc21,177 to 178
4,Cc1sc(C)c2c1CCCC2(O)c1cn(C(c2ccccc2)(c2ccccc2)c2ccccc2)cn1 (stereo not drawn),111 to 115
5,C#CCN1C(=O)C(=O)N(c2cc(Cl)ccc2C)C1=S,162 to 164
6,CCN1CCC2(c3cccc(O)c3)Cc3[nH]c(C(=O)N(CC)CC)c(C)c3CC2C1 (stereo not drawn),221 to 223
7,O=C1NC(Cc2c[nH]c3ccccc23)C(=O)N1CCCN1CCOCC1 (stereo not drawn),158 to 160
8,CCN/C(=C1\C(=O)c2ccccc2S1=O)c1ccccc1 (stereo not drawn),183 to 185
9,C[C@H](CO)Cn1c2ccccc2c2ccccc21,80 to 81
10,CC(C)(C)OC(=O)c1cnc(F)cn1,26.5 to 28.1
11,CCOC(=O)c1cnc2nn(CC)cc2c1O,197 to 198
12,COC(=O)CSc1nc(Nc2ccc(N3CCOCC3)cc2)ncc1[N+](=O)[O-],188 to 190
13,O=C(O)CCC(=O)Nc1cccc2ccccc12,167 to 169
14,COC(=O)CC(=O)c1ccccc1OCc1ccccc1C,38 to 42
15,CC(C)(O)[C@@H](N)c1ccc2ccccc2c1,77 to 78
16,Cc1nnc2n1-c1sccc1C(c1ccccc1Cl)=NC2,221 to 223
17,COc1ccc([C@@H]2Sc3cc(Oc4ccc5c(c4)OCO5)ccc3NC(=O)[C@@H]2O)cc1,188
18,CC(=O)CSc1cc(C(C)(C)C)c(O)c(C(C)(C)C)c1,105 to 106
19,CC(C)(C)SC[C@@H]1NC(=O)[C@@H](CSSC[C@@H]2NC(=O)[C@@H](CSC(C)(C)C)NC2=O)NC1=O,278
20,COc1ccc(S(=O)(=O)N2CCc3cccc(-c4ccc(F)c(F)c4)c32)cc1,180 to 181
21,CC12CC=C3C(CCC4(CCC#N)CC(O[Si](C)(C)C(C)(C)C)CCC34C)C1CCC2O[Si](C)(C)C(C)(C)C (stereo not drawn),194 to 195
22,CCCOc1nc(N)c2ncn(C3C=CCCC3)c2n1 (stereo not drawn),157 to 159
23,COCCc1nc2cnc3cc(OCc4ccccc4)ccc3c2n1CC(C)(C)O,170 to 172
24,COC(=O)c1ccccc1-c1ccc(COc2cc(C)nc3cccnc23)cc1,132 to 134
25,CCCCCCCCCC(=O)Nc1c2c(nc3ccccc13)CCCC2,123 to 126

# Further lines, results first:
row,melting point [°C],SMILES
1,126 to 134,COc1cc(C(=O)NS(=O)(=O)c2ccccc2Cl)ccc1Cc1c(Cl)n(C)c2ccc(CC3CCN(C)C3=O)cc12 (stereo not drawn)
2,80 to 83,CCCc1c(OCCCCCC(=O)NCCc2ccncc2)ccc(C(C)=O)c1O
3,208 to 209,Cn1cc(OS(C)(=O)=O)c(=O)c2ccccc21
4,200 to 204,Cc1cc(C)n(C)c(=O)c1C(=O)O
5,127 to 129,CCOC(=O)c1cn2c(cc(OC(C)C)c3ccccc32)n1
6,> 250,O=C(Nc1cccc2c1ncc1ccc(O)cc12)c1c(Cl)cccc1Cl
7,72 to 73,CC(C)c1ccc(NC(=O)NCCc2ccccn2)cc1
8,193 to 196,CC(=O)N1CCc2c(sc(C)c2CCN2CCC(c3nn(-c4ccc(F)cc4)c4cc(F)ccc34)CC2)C1
9,182 to 186,Cc1nccn1-c1nc(NCc2ccccc2)c2ccccc2n1
10,228 to 230,CCCNC(=O)c1ccc2c(c1)C(=O)NC(C(Cl)(Cl)Cl)O2 (stereo not drawn)
11,96 to 97,CCCc1nn(-c2ccc(C(F)(F)F)cn2)cc1CCCCOc1cccc(CC(=O)O)c1
12,146,COc1ccc2ccc(N3C(=O)c4ccccc4C3OCC(=O)NCCN(C)C)nc2n1 (stereo not drawn)
13,154 to 155,COc1ccccc1S(=O)(=O)N(C)c1cccc2cc(C3=NCC(CCO)S3)[nH]c12 (stereo not drawn)
14,144 to 148,Cc1ccc(S(=O)(=O)c2ccc3c(c2)c(CCNC(=O)OC(C)(C)C)cn3C)cc1
15,204 to 208,CC1(C)Oc2ccc(C#N)cc2[C@@H](NC(=O)Nc2cccc(-c3nnn[nH]3)c2)[C@@H]1O
16,137 to 138,CCOC(=O)COc1c(F)cc(S(=O)CCNS(=O)(=O)c2ccc(Cl)cc2)cc1F (stereo not drawn)
17,113 to 115,COc1cc(COc2nn(-c3ccccc3)cc2/C=C/c2csc(C(C)(C)C)n2)ccc1OCc1nc(-c2ccc(CC(=O)O)cc2)oc1C
18,302 to 304,NC(=O)c1ncn2c(-c3ccc(Cl)c(Cl)c3)ccnc12
19,> 300,Cc1cc(=O)[nH]c2c(C)cc(Br)cc12
20,69 to 71.5,CCOC(=O)Cc1c(-c2ccc(C)cc2)nn2cccnc12
21,149 to 151,CCCOc1ccc2c(c1)C(N(C)S(C)(=O)=O)C(O)C(C)(C)O2 (stereo not drawn)
22,107,CCOC(=O)C1[C@@H]2[C@@H](O)[C@@H]3O[C@H](c4cccc(OC)c4)OC[C@H]3O[C@H]12 (stereo partly drawn)
23,206 to 207,N#Cc1cn(-c2cccnc2)nc1-c1ccc([N+](=O)[O-])o1
24,98 to 101,CCCc1c(OCC(O)COc2cccc(NC(=O)C(=O)OCC)c2)ccc(C(C)=O)c1O (stereo not drawn)

row,melting point [°C],SMILES
1,170 to 175,CC(C)(C)c1nc2cc(N3CCSCC3)c(N)cc2s1
2,165 to 166,OCC1(Oc2ccc3c(c2)c(-c2cc4cccnc4[nH]2)cn3C2(CO)CCC2)CCC1
3,236 to 238,Nc1c2c(nc3ccccc13)CCCC2=O
4,142 to 143,COc1ccc(Cn2c(=O)ccc3cnc(N4CCC[C@H]4CO)nc32)cc1Cl
5,211 to 212,Cc1ccc(Sc2c(Cl)c(C(=O)O)c(C(O)=NCCO)c(Cl)c2Sc2ccc(C)cc2)cc1
6,204 to 205,O=C1NC(=O)c2cc(Nc3ccc(O)c(O)c3)c(Nc3ccccc3)cc21
7,125 to 126,CCc1cn(C2CC(O)C(CN=[N+]=[N-])O2)c(=O)nc1NC(=O)c1ccccc1 (stereo not drawn)
8,63 to 64,OC(=S)CCc1ccc(Cl)c(Cl)c1
9,40 to 41,CC(=O)OC(CCCCl)C(=O)OCc1ccccc1 (stereo not drawn)
10,173 to 174,O=c1[nH]c(=O)n(CCCCCN2CCC(OC(c3ccccc3)c3ccccc3)CC2)c2ccccc12
11,191 to 192,Cn1cnc(COc2nn3c(-c4ccon4)nnc3c3ccccc23)c1
12,131 to 133,CCOC(=O)c1cc(-c2ocnc2C)[nH]n1
13,174 to 177,CCCN(CCC)CCc1ccc(OC)c(C(=O)O)c1OC
14,112 to 113,COc1cc(OCc2ccc3c(c2)C(C)(C)CCC3(C)C)ccc1C(=O)OCc1ccccc1
15,165 to 166,O=C(COc1cc(C(=O)O)c(O)c2ccccc12)Nc1ccccc1
16,130 to 131,C[Si](C)(C)OCc1cccc2c1c1c(c3ccccc32)-c2c(c3ccccc3c3ccccc23)C1
17,187 to 190,CCc1nc(C)c2nnc3ccc(F)cc3n12
18,262 to 263,C=C(Nc1nc(-c2ccccc2)c(-c2nc3ccccc3c(=O)n2-c2ccccc2C)s1)c1ccco1
19,120 to 121,O=C1CC(c2ccc(F)cc2)c2ccccc21 (stereo not drawn)
20,163,Nc1cc(-c2ccc(CO)o2)nn1Cc1ccccc1
21,166 to 167,CCCOCCOc1cccc(-c2ccc3c(c2)C=C(C(=O)Nc2ccc(CN(C)C4CCOCC4)cc2)CCS3(=O)=O)c1
22,96 to 116,COc1cccc2c1cc(C)n2Cc1ccccc1
23,97 to 104,COc1ccc(C2(c3ccc(OC)cc3)CC2(C)Br)cc1 (stereo not drawn)
24,189 to 190,Nc1cc(N2C(=O)COc3ccccc32)ccn1
